Measurements taken from patent publication US8252047B2, “Drug-delivery endovascular stent and method for treating restenosis” (Biosensors International Group, Ltd., priority 2004, dated 2012).
Values belong to the compound of their own block, whether it stands above or below them.

Tests used:
physchem = assay: physchem
From the text: The coating may also include binders or small molecules designed to optimize the tissue solubility of the drug coating, to produce a desired cohesiveness in the drug coating, and a desired drug release rate in the implanted stent.

[1] = in vitro drug elution in PBS from platinum-coated stent; type: physicochemical; settings: 252 μg on platinum-plated anchoring layer stent, by day 34
From the text: FIG. 7 is an elution profile in PBS of the drug Biolimus A-9 from the stent of the invention as measured by the total amount of drug released in μg over cumulative time in hours.
It will be appreciated that the actual rate of drug release in vivo will be much greater, e.g., the bulk of the drug released will be released within the first few days following implantation, due to the greater hydrophobicity of the cell-membrane environment in vivo. However, the in vitro release in a purely aqueous medium provides a useful standard for formulating the drug coating, to achieve an effective drug release rate in vivo and also to achieve, a desired drug-layer cohesiveness.

[2] = tested on: restenosis in porcine coronary arteries; assay: swine restenosis animal model, stent implantation; type: in vivo; settings: 28 days after implantation, platinum anchoring layer stent with vs without drug coating
From the text: Briefly, studies conducted in support of the present invention compared the extent of restenosis at 28 days following stent implantation, in metal stents having an electroplated platinum anchoring layer, with or without a drug coating of Biolimus A-9.

[3] = cited from earlier work

log P (log partition coefficient between octanol and water) (physchem): 7.63 | fraction of drug eluted from the stent [1]: about one-third
SMILES: CCOCCO[C@@H]1CC[C@@H](C[C@@H](C)[C@@H]2CC(=O)[C@H](C)/C=C(\C)[C@@H](O)[C@@H](OC)C(=O)[C@H](C)C[C@H](C)/C=C/C=C/C=C(\C)[C@@H](OC)C[C@@H]3CC[C@@H](C)[C@@](O)(O3)C(=O)C(=O)N3CCCC[C@H]3C(=O)O2)C[C@H]1OC [Biolimus A-9]
extent of restenosis [2]: significantly reduced the extent of restenosis

log P (log partition coefficient between octanol and water) (physchem): 6.70
SMILES: CO[C@H]1C[C@@H]2CC[C@@H](C)[C@@](O)(O2)C(=O)C(=O)N2CCCC[C@H]2C(=O)O[C@H]([C@H](C)C[C@@H]2CC[C@@H](OCCO)[C@H](OC)C2)CC(=O)[C@H](C)/C=C(\C)[C@@H](O)[C@@H](OC)C(=O)[C@H](C)C[C@H](C)/C=C/C=C/C=C/1C [everolimus]

chromatographic logP (physchem): 4.68
SMILES: CC(=O)O[C@H]1C(=O)[C@@]2(C)[C@H]([C@H](OC(=O)c3ccccc3)[C@]3(O)C[C@H](OC(=O)[C@H](O)[C@@H](NC(=O)c4ccccc4)c4ccccc4)C(C)=C1C3(C)C)[C@]1(OC(C)=O)CO[C@@H]1C[C@@H]2O [paclitaxel]

SMILES: CCc1ccc(CCOc2ccc(CC3SC(=O)NC3=O)cc2)nc1 (stereo not drawn) [pioglitazone]
solubility in acetone ([3]; acetone): slightly soluble | solubility in ethanol ([3]; ethanol): slightly soluble | solubility in water ([3]; water): insoluble

SMILES: CO[C@H]1C[C@@H]2CC[C@@H](C)[C@@](O)(O2)C(=O)C(=O)N2CCCC[C@H]2C(=O)O[C@H]([C@H](C)C[C@@H]2CC[C@@H](O)[C@H](OC)C2)CC(=O)[C@H](C)/C=C(\C)[C@@H](O)[C@@H](OC)C(=O)[C@H](C)C[C@H](C)/C=C/C=C/C=C/1C [rapamycin]
log P (log partition coefficient between octanol and water) (physchem; modified HPLC method (Lombardo et al.)): 6.51
